Laboratory results published in PubChem BioAssay AID2060504 (Molecular Pharmacology Branch, DTP, NCI, 2025).

System: 636577-100-R-J1-PDC complex spheroid viability
Assay: Anticancer human tumor 636577-100-R-J1-PDC patient-derived endometrial adenocarcinoma cell line growth inhibition [GQUAD]
Settings: for IC50: curve of first compound; for viability, T/C: stronger effect = lower value
Excerpt: DNA G-quadruplex Stabilizer Agents in Combinations in Complex Spheroids
A high-throughput screen of multi-cell type tumor spheroids was designed to identify active combinations of DNA G-quadruplex stabilizer agents and targeted small molecules. Complex spheroids include a stromal component modeled by human endothelial cells (HUVEC) and fibroblasts modeled by human mesenchymal stem cells (MSCs). The concentration ranges selected for each drug and investigational agent were based upon clinically achievable concentrations if the clinical Cmax of the agent was known.
Compounds. The drugs and investigational agents: pidnarulex (CX-5461; NSC782164), APTO-253 (NSC789042), BRACO-19 (NSC847499), peposertib (NSC802822), ceralasertib (NSC780249), elimusertib (NSC800525), camonsertib (NSC841442), AZD-1390 (NSC803789), olaparib (NSC753686), talazoparib (NSC767125), ART-558 (NSC835418), sotorasib (NSC818433), MRTX-1133 (NSC836407), SN-38 (NSC673596), topotecan (NSC609699), etoposide (NSC141540), doxorubicin (NSC123127), gemcitabine (NSC613327), 5-fluorouracil (NSC19893), paclitaxel (NSC125973), vemurafenib (NSC761431), panobinostat (NSC761190), R-306465 (JNJ-16241199; NSC773264), adavosertib (NSC754352), TP-3654 (NSC805149), carboplatin (NSC241240), KSQ-4279 (NSC840948), and staurosporine (NSC755774) were obtained from the National Cancer Institute (NCI) Developmental Therapeutics Program Chemical Repository (34). The FDA-approved anticancer drug set is available from the NCI Developmental Therapeutics Program. […] The stock solutions were prepared in dimethyl sulfoxide (DMSO, Sigma-Aldrich, St. Louis, MO, cat. D2650) at 800-fold the tested concentration and stored at -70 degrees C prior to their use. All drugs and investigational agents were tested over a range starting from a high concentration at or near the clinical Cmax and decreasing in half-log increments. If the clinical Cmax for an agent had not been determined, the highest concentration tested was 10 microM.
2.3 Cell Culture. All cells were maintained in an incubator at 37 degrees C and 5% CO2 with 95% humidity. The PDC lines were cultured according to standard operating procedures established by the NCI PDMR. All PDCs were thawed and cultured in Matrigel-coated flasks prepared with a working solution of 1X Ham's F-12 nutrient mix, without supplementation (Invitrogen, cat. 11765054), 100 U/mL penicillin-streptomycin (Invitrogen, cat. 15140122), and 2.5% Matrigel (Corning Inc., cat. 354248) for the first three passages. The 857933-349-R-J2-PDC line was cultured in 6C/Colon 1B media, which includes advanced DMEM/F-12 (Thermo Fisher Scientific, cat. 12634028), 10 mM HEPES (Thermo Fisher Scientific, cat. 15630080), 1X GlutaMAX supplement (Thermo Fisher Scientific, cat. 35050061), 0.1 mg/mL primocin (InvivoGen, cat. ant-pm-2), 10% defined fetal bovine serum, heat inactivated (HyClone Laboratories Inc., cat. SH30070.03HI), 50% L-WRN conditioned media (ATCC, cat. CRL-3276), 1.25 mM N-Acetyl-L-cysteine (Sigma-Aldrich, cat. A9165), 10 mM nicotinamide (Sigma-Aldrich, cat. N0636), 1X B-27 supplement (Thermo Fisher Scientific, cat. 17504044), 1X N-2 supplement (Thermo Fisher Scientific, cat. 17502048), 10 microM Y-27632 dihydrochloride (Tocris Bioscience, cat. 1254), and 50 ng/mL human EGF recombinant protein (Thermo Fisher Scientific, cat. PHG0311). The 485176-168-R4-J1-PDC line was cultured in Panc media, which includes all 6C/Colon 1B media components plus 100 ng/mL human FGF-10 (Thermo Fisher Scientific, cat. 100-26), 500 nM SB-431542 (Selleckchem, cat. S1067), and gastrin (Tocris, cat. 3006).
[…]

[1] = second compound 0.0316 µM, first compound 0.0316 µM
[2] = second compound 0.0316 µM, first compound 0.1 µM
[3] = second compound 0.0316 µM, first compound 0.316 µM
[4] = second compound 0.0316 µM, first compound 1 µM
[5] = second compound 0.0316 µM, first compound 3.16 µM
[6] = second compound 0.0316 µM, first compound 10 µM
[7] = second compound 0.1 µM, first compound 0.0316 µM
[8] = second compound 0.1 µM, first compound 0.1 µM
[9] = second compound 0.1 µM, first compound 0.316 µM
[10] = second compound 0.1 µM, first compound 1 µM
[11] = second compound 0.1 µM, first compound 3.16 µM
[12] = second compound 0.1 µM, first compound 10 µM
[13] = second compound 0.316 µM, first compound 0.0316 µM
[14] = second compound 0.316 µM, first compound 0.1 µM
[15] = second compound 0.316 µM, first compound 0.316 µM
[16] = second compound 0.316 µM, first compound 1 µM
[17] = second compound 0.316 µM, first compound 3.16 µM
[18] = second compound 0.316 µM, first compound 10 µM
[19] = second compound 1 µM, first compound 0.0316 µM
[20] = second compound 1 µM, first compound 0.1 µM
[21] = second compound 1 µM, first compound 0.316 µM
[22] = second compound 1 µM, first compound 1 µM
[23] = second compound 1 µM, first compound 3.16 µM
[24] = second compound 1 µM, first compound 10 µM
[25] = second compound 3.16 µM, first compound 0.0316 µM
[26] = second compound 3.16 µM, first compound 0.1 µM
[27] = second compound 3.16 µM, first compound 0.316 µM
[28] = second compound 3.16 µM, first compound 1 µM
[29] = second compound 3.16 µM, first compound 3.16 µM
[30] = second compound 3.16 µM, first compound 10 µM
[31] = second compound 10 µM, first compound 0.0316 µM
[32] = second compound 10 µM, first compound 0.1 µM
[33] = second compound 10 µM, first compound 0.316 µM
[34] = second compound 10 µM, first compound 1 µM
[35] = second compound 10 µM, first compound 3.16 µM
[36] = second compound 10 µM, first compound 10 µM
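Note: viability read after seven days of drug exposure.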
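Throughout, for viability, T/C: luminescence signal used as a proxy for viable cells; 100% = DMSO vehicle control wells.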

SMILES: CC(C)(O)C1CCC(Nc2ccc3ncc(-c4cccc(C(F)(F)F)c4)n3n2)CC1 (centres undefined) + Cc1[nH]c2ccc(F)cc2c1-c1nc2c3cccnc3c3ncccc3c2[nH]1
- IC50 (second compound 0.0316 µM): 1090 nM
- IC50 (second compound 0.1 µM): 981 nM
- IC50 (second compound 0.316 µM): 1770 nM
- IC50 (second compound 1 µM): 1880 nM
- IC50 (second compound 3.16 µM): < 31.6 nM
- IC50 (second compound 10 µM): < 31.6 nM
- viability, T/C [1]: 92.8%
- viability, T/C [2]: 75.9%
- viability, T/C [3]: 111%
- viability, T/C [4]: 51.3%
- viability, T/C [5]: 35.5%
- viability, T/C [6]: 32.2%
- viability, T/C [7]: 90.7%
- viability, T/C [8]: 79.1%
- viability, T/C [9]: 84.4%
- viability, T/C [10]: 49%
- viability, T/C [11]: 33.1%
- viability, T/C [12]: 26.2%
- viability, T/C [13]: 60.9%
- viability, T/C [14]: 54.6%
- viability, T/C [15]: 82.9%
- viability, T/C [16]: 62.5%
- viability, T/C [17]: 34.6%
- viability, T/C [18]: 39.9%
- viability, T/C [19]: 69%
- viability, T/C [20]: 78%
- viability, T/C [21]: 69.5%
- viability, T/C [22]: 69.8%
- viability, T/C [23]: 33.7%
- viability, T/C [24]: 23.5%
- viability, T/C [25]: 20.1%
- viability, T/C [26]: 28.1%
- viability, T/C [27]: 31.1%
- viability, T/C [28]: 26.1%
- viability, T/C [29]: 16.2%
- viability, T/C [30]: 13.1%
- viability, T/C [31]: 31.6%
- viability, T/C [32]: 34.1%
- viability, T/C [33]: 39%
- viability, T/C [34]: 37.8%
- viability, T/C [35]: 17.1%
- viability, T/C [36]: 15.1%

SMILES: CCCS(=O)(=O)Nc1ccc(F)c(C(=O)c2c[nH]c3ncc(-c4ccc(Cl)cc4)cc23)c1F + Cc1[nH]c2ccc(F)cc2c1-c1nc2c3cccnc3c3ncccc3c2[nH]1
- IC50 (second compound 0.0316 µM): > 10000 nM
- IC50 (second compound 0.1 µM): 5370 nM
- IC50 (second compound 0.316 µM): 7080 nM
- IC50 (second compound 1 µM): 7150 nM
- IC50 (second compound 3.16 µM): < 31.6 nM
- IC50 (second compound 10 µM): < 31.6 nM
- viability, T/C [1]: 98.2%
- viability, T/C [2]: 87.4%
- viability, T/C [3]: 116%
- viability, T/C [4]: 56.9%
- viability, T/C [5]: 73.5%
- viability, T/C [6]: 43.6%
- viability, T/C [7]: 101%
- viability, T/C [8]: 69.4%
- viability, T/C [9]: 104%
- viability, T/C [10]: 58.7%
- viability, T/C [11]: 66.3%
- viability, T/C [12]: 37.3%
- viability, T/C [13]: 94.2%
- viability, T/C [14]: 79.6%
- viability, T/C [15]: 81.2%
- viability, T/C [16]: 89.6%
- viability, T/C [17]: 80.4%
- viability, T/C [18]: 36.7%
- viability, T/C [19]: 87.4%
- viability, T/C [20]: 83.1%
- viability, T/C [21]: 63.9%
- viability, T/C [22]: 82.9%
- viability, T/C [23]: 69.4%
- viability, T/C [24]: 41.6%
- viability, T/C [25]: 28%
- viability, T/C [26]: 25.4%
- viability, T/C [27]: 31.2%
- viability, T/C [28]: 32.5%
- viability, T/C [29]: 31.9%
- viability, T/C [30]: 20.4%
- viability, T/C [31]: 40.2%
- viability, T/C [32]: 49.2%
- viability, T/C [33]: 48.7%
- viability, T/C [34]: 45.1%
- viability, T/C [35]: 43.5%
- viability, T/C [36]: 28.3%
